pIC50: −log10 of the molar value. Converted amounts (≈) assume the structure as drawn. Read-outs that look alike come from different tables or passages of the source. A value given as a limit tells only on which side of the number the result lay.

For series [1], the system named is DNA, RNA, protein or cell wall biosynthesis. To be noted: whole-cell labeling; cited from earlier work.
Series [2] deals with T1, FabH (Staphylococcus aureus, UniProt Q8NXE2).
T1 sequence (Q8NXE2 1-313): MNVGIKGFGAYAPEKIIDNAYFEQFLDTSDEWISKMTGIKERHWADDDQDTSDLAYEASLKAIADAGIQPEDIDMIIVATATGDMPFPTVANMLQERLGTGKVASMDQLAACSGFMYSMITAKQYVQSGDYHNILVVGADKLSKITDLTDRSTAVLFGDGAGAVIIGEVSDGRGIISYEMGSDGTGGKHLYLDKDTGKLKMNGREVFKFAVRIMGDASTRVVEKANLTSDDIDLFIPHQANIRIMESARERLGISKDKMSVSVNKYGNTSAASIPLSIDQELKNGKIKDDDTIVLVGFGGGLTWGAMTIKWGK
To be noted: cited from earlier work.

Series [3] has as its target T2, FabF (Staphylococcus aureus, UniProt Q5TKS0).
T2 sequence (Q5TKS0 1-403): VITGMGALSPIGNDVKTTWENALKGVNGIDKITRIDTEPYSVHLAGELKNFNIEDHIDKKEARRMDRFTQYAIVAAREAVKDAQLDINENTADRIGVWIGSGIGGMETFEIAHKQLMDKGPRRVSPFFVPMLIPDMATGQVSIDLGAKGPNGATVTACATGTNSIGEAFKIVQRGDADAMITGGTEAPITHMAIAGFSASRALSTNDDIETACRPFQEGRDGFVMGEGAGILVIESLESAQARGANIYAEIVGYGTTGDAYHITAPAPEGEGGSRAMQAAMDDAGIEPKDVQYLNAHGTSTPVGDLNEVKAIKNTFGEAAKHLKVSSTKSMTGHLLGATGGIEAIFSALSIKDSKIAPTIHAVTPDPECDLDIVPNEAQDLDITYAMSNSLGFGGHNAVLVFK
Particulars: cited from earlier work.

In series [4] the test system is lipid biosynthesis in S. aureus. To be noted: whole-cell labeling; cited from earlier work.
Series [5] relates to Streptococcus pneumoniae. To be noted: cited from earlier work.
Series [6] deals with S. aureus infection. To be noted: cited from earlier work.
For series [7], the system named is Streptomyces avermitilis. The series is described as follows: paper disk susceptibility of S. avermitilis. The class given is cell-based. To be noted: 0.5-4 μg on paper disk. The text has this:
(§1) FIGS. 6A-C: Engineering of S. platensis. (FIG. 6A) Additional biosynthetic intermediates and shunt metabolites isolated from the wild-type S. platensis MA7327 strain. (FIG. 6B) Production of PTM (●) and PTN (♦) by the engineered S. platensis SB12002 (iv) and SB12001 (iii) strains with the wild-type S. platensis MA7327 as a control under two fermentation conditions for PTM (i) and PTM and PTN (ii) production. (FIG. 6C) Susceptibility of S. avermitilis and S. albus J1074 to PTM and PTN: 1, negative controls; 2, 4 μg; 3, 4 μg; 4, 2 μg; 5, 1 μg; 6, 0.5 μg of PTM or PTN on each paper disk.
(§2) Having large quantity (multiple grams) of PTM and PTN in hand from the overproducers, the inventors systematically examined the sensitivity of a battery of Streptomyces towards PTM or PTN. Remarkably, they have identified strains that are sensitive to both PTM and PTN, as exemplified by Streptomyces avermitilis, or PTN but not PTM, as exemplified by Streptomyces albus J1074 (FIG. 6C). The differential sensitivity of the organisms tested towards PTM and PTN is consistent with the established mode of action for PTM and PTN (i.e., PTM as a FabB/F inhibitor while PTN as a FabB/F and FabH dual inhibitor)—targeting two essential proteins should lead to lower resistance potential than targeting only one. […]

Series [8] relates to mammalian cell. To be noted: cited from earlier work.
The conditions of series [9]: animal model studies; cited from earlier work.
The target in series [10] is T1, FabH. To be noted: cited from earlier work. The source holds these as a separate data set.
In series [11] the test system is Escherichia coli. Particulars: cited from earlier work.
Series [12] has as its target T2, FabF. Particulars: 14C-radiolabeled malonyl-CoA, polyacrylamide gel electrophoresis; cited from earlier work.
Series [13] concerns S. aureus. Particulars: cited from earlier work.
The subject of series [14] is S. platensis MA7327. Briefly: antibiotic sensitivity of S. platensis MA7327. It counts as cell-based, Streptomyces platensis. The text has this:
The inventors have developed an efficient genetic system for in vivo manipulation of PTM/PTN biosynthesis in S. platensis MA7327 via E. coli-S. platensis conjugation. […] Although S. platensis protoplasts can be readily prepared and regenerated with high frequency, introduction of either replicative or integrative plasmid into S. platensis via protoplast-mediated transformation has not been successful (Kieser et al., 2000).

The test system of series [15] is vancomycin-resistant E. faecium. To be noted: cited from earlier work.
Series [16] concerns Streptomyces albus J1074. Briefly: paper disk susceptibility of S. albus J1074. To be noted: 0.5-4 μg on paper disk. The class given is cell-based.
From the text: as §1, §2

Turning to `C[C@]12C[C@@]34C=CC(=O)[C@@](C)(CCC(=O)Nc5c(O)ccc(C(=O)O)c5O)C3[C@H](CC1C4)O2` (stereo partly shown) [PTM, platensimycin], the “concentration without inhibition of DNA, RNA, protein or cell wall biosynthesis” value in [1] was greater than 500 µg/mL. In [2], the “inhibition of S. aureus FabH” value is listed as “weak inhibition”. For the same compound, the “greater potency than cerulenin as inhibitor of FabF” value in [3] (relative to cerulenin) was 200 fold. In addition, in [3] (single enzyme inhibition assays), the pIC50 is greater than 7.30. In addition, in series [4], the “IC50 inhibition of lipid biosynthesis” value is 0.1 µg/mL. Further, the minimal inhibitory concentration was 2.5 µM (≈ 1.1 µg/mL) in series [5] and 1 µM (≈ 0.441 µg/mL) in series [13]. Moreover, in [6] (mouse, 100 μg/h intravenously with a continuous pump, over 24 hrs), the “decrease of S. aureus infection” value is given as 10^4-10^5 fold. Besides, the “sensitivity of Streptomyces avermitilis” value in series [7] is “sensitive”. Moreover, the mammalian cell toxicity entry in series [8] is listed as “Low”. For the same compound, the pharmacokinetics entry in series [9] was “exceedingly poor pharmacokinetics”. In addition, the FabH inhibition entry in [10] is listed as “does not inhibit FabH to any significant extent”. Further, the antibacterial activity result in series [11] (efflux-negative Escherichia coli) is listed as “showed antibacterial activity”; in series [11] (wild-type E. coli), “not against wild-type E. coli”. The “effectiveness against Gram-negative Escherichia coli” value in series [11] (tolC dependent efflux) was “not very effective”. In addition, the “preference for FabF inhibition relative to FabH inhibition” value in series [12] was 838 fold.
Regarding `CN[C@@H]1[C@@H](O[C@H]2O[C@H](CO)[C@@H](N)[C@H](O)[C@H]2O)OC2C[C@@H](N)[C@@H](O[C@H]3[C@H](O)[C@@H](O)[C@H](N)C[C@@H]3N)OC2[C@@H]1O` (stereo partly shown) [apramycin], the “concentration giving complete inhibition of growth” value in series [14] is 25 µg/mL.
On to `CC[C@H]1OC(=O)[C@H](C)[C@@H](O[C@H]2C[C@@](C)(OC)[C@@H](O)[C@H](C)O2)[C@H](C)[C@@H](O[C@@H]2O[C@H](C)C[C@H](N(C)C)[C@H]2O)[C@](C)(O)C[C@@H](C)C(=O)[C@H](C)[C@@H](O)[C@]1(C)O` [erythromycin], for which, in series [14], the “concentration giving complete inhibition of growth” value was 10 µg/mL.
The same measure, in the same setting: under `NC[C@H]1O[C@H](O[C@H]2[C@H](O)[C@@H](O[C@H]3O[C@H](CO)[C@@H](O)[C@H](N)[C@H]3O)[C@H](N)C[C@@H]2N)[C@H](O)[C@@H](O)[C@@H]1O` [kanamycin] stands 25 µg/mL.
Regarding `C=C1C[C@@]23C=CC(=O)[C@@](C)(CCC(=O)Nc4c(O)ccc(C(=O)O)c4O)[C@@H]2C[C@@H]1CC3` [platencin], the “antibacterial activity compared to platensimycin” value in [15] is recorded as “increased antibacterial activity”; in [5] (S. pneumoniae), “decreased activity”; in series [11] (efflux-negative E. coli), “increased antibacterial activity”. In addition, the “reduction of S. aureus cfu in kidney” value in [6] (mouse, continuous infusion 150 μg/h, over 24 h) is 3 log. In series [6] (mouse, in vivo), the in vivo efficacy entry is “potent in vivo efficacy”. Besides, the “observed toxicity in vivo” value in series [6] (mouse, in vivo) is “without any observed toxicity”. In series [16], the “sensitivity of Streptomyces albus J1074” value is given as “sensitive”. For the same compound, the “sensitivity of Streptomyces avermitilis” value in series [7] is “sensitive”. Also, the pharmacokinetics result in [9] is “exceedingly poor pharmacokinetics”. For the same compound, the FabH inhibition entry in series [10] is “inhibits FabH”.
Consider `C=C(NC(=O)C(=C)NC(=O)c1csc(C2=N[C@@H]3c4csc(n4)[C@H]4NC(=O)c5csc(n5)[C@H]([C@](C)(O)[C@@H](C)O)NC(=O)[C@H]5CSC(=N5)/C(=C/C)NC(=O)[C@H]([C@@H](C)O)NC(=O)c5csc(n5)[C@]3(CC2)NC(=O)[C@H](C)NC(=O)C(=C)NC(=O)[C@H](C)NC(=O)[C@H]([C@@H](C)CC)N[C@@H]2C=Cc3c([C@H](C)O)cc(nc3[C@H]2O)C(=O)O[C@@H]4C)n1)C(N)=O` [thiostrepton], for which, in [14], the “concentration giving complete inhibition of growth” value came out at 10 µg/mL.
Take platensimycin [PTM]: the “clearing S. aureus infection from a mouse model” value in series [6] (high doses) is listed as “effective in clearing S. aureus infection”.

The record behind these values is patent US8652838B2, “Platensimycin biosynthetic gene cluster of Streptomyces platensis” (Wisconsin Alumni Research Foundation, priority 2007, dated 2014).
